We go through two compounds from article PMC5376326, “Inhibition of ANO1 by luteolin and its cytotoxicity in human prostate cancer PC-3 cells” (PLoS ONE, 2017).

Several values for one entry are separate records, joined by “and”; a condition that tells them apart may be missing. Identical values can stand only once.

In experiment [1] the target is T1, human ANO1 (abc) (Homo sapiens, UniProt Q5XXA6, DEL476-501).
T1 sequence (Q5XXA6 with tags, fused parts or gaps isoform Q5XXA6-5 DEL539-564): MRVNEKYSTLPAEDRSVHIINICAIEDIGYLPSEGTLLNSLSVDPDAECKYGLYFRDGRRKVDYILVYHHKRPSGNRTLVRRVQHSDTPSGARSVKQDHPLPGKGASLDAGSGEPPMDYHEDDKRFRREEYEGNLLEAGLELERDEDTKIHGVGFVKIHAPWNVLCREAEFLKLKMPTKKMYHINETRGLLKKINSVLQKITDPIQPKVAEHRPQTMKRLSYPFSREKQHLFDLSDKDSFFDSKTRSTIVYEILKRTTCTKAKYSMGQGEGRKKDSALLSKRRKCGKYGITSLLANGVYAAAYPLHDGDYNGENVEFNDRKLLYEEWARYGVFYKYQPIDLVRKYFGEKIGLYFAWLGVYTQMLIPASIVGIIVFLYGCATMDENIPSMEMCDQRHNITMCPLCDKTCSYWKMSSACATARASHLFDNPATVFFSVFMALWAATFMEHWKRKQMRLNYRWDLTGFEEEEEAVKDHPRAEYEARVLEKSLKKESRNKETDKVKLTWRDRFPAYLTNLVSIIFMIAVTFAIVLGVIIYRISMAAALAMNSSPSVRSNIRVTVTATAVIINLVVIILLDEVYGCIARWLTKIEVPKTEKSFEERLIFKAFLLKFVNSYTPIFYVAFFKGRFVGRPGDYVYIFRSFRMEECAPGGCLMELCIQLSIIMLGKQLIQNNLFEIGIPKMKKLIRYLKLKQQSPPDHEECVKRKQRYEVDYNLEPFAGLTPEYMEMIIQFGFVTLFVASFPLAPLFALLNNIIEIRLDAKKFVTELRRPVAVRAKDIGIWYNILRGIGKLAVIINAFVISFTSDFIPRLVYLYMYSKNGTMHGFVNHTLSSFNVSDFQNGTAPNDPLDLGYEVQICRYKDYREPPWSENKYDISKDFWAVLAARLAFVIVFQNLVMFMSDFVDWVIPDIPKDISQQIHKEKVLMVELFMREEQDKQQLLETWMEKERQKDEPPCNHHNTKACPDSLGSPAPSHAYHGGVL
Nature of the experiment: YFP fluorescence quenching assay (iodide influx) in FRT cells expressing human ANO1. The note with it: for IC50: FRT cells expressing ANO1 and YFP, ATP activation, mean ± S.E., n = 3, read-out: IC50, ANO1 inhibition (YFP fluorescence quenching). The class given is cell-based. On the procedure: Fisher rat thyroid (FRT) cells were stably transfected with human ANO1 (abc) or mouse ANO2 and the halide sensor YFP as described in previous study. FRT cells were cultured in Coon`s modified F12 medium with 10% FBS, 2 mM L-glutamine, 100 units/ml penicillin and 100 μg/ml streptomycin at 37°C and 5% CO2. PC-3 cells were grown in RPMI 1640 medium supplemented with 10% FBS, 100 units/ml penicillin and 100 μg/ml streptomycin at 37°C and 5% CO2. There were populations of PC-3 cells with high and low expression of ANO1. To separate high and low levels of ANO1 expressing PC-3 cells, cells were stably transfected with the halide sensor YFP-H148Q/I152L/F46L and then the cells were plated on 96 well plates at 1 cell per well. After two weeks of incubation, high and low levels of ANO1 expressing PC-3 cells were separated by YFP quenching assay. ANO1 was activated by 100 μM ATP.
ANO1 and YFP expressing FRT cells were plated in 96-well black-walled microplates (Corning Inc., Corning, NY) at a density of 20,000 cells per well. Assays were done using FLUOstar Omega microplate reader (BMG Labtech, Ortenberg, Germany) and MARS Data Analysis Software (BMG Labtech) as described in our previous study. Briefly, each well of 96-well plate was washed 3 times in PBS (200 μL/wash) and test compounds were added to each well at 25 μM final concentration. After 10 minutes incubation at 37°C, 96-well plates were transferred to the plate reader for fluorescence assay. Each well was assayed individually for ANO1-mediated I^- influx by monitoring YFP fluorescence continuously (400 ms per point) for 2 s (baseline), then 140 mM I^- solution containing 200 μM ATP was added at 2 s and then YFP fluorescence was recorded for 6 s. Initial iodide influx rate was determined from the initial slope of fluorescence decrease, by nonlinear regression, following infusion of iodide with ATP.

Experiment [2] addresses T2, ANO1 (Homo sapiens, UniProt Q5XXA6).
T2 construct: PC-3 prostate cancer cells expressing high levels of ANO1 endogenously; endogenous in cells; host or cells: PC-3 cells (clones with high ANO1 expression; stably transfected only with the YFP halide sensor)
T2 sequence (Q5XXA6 1-986): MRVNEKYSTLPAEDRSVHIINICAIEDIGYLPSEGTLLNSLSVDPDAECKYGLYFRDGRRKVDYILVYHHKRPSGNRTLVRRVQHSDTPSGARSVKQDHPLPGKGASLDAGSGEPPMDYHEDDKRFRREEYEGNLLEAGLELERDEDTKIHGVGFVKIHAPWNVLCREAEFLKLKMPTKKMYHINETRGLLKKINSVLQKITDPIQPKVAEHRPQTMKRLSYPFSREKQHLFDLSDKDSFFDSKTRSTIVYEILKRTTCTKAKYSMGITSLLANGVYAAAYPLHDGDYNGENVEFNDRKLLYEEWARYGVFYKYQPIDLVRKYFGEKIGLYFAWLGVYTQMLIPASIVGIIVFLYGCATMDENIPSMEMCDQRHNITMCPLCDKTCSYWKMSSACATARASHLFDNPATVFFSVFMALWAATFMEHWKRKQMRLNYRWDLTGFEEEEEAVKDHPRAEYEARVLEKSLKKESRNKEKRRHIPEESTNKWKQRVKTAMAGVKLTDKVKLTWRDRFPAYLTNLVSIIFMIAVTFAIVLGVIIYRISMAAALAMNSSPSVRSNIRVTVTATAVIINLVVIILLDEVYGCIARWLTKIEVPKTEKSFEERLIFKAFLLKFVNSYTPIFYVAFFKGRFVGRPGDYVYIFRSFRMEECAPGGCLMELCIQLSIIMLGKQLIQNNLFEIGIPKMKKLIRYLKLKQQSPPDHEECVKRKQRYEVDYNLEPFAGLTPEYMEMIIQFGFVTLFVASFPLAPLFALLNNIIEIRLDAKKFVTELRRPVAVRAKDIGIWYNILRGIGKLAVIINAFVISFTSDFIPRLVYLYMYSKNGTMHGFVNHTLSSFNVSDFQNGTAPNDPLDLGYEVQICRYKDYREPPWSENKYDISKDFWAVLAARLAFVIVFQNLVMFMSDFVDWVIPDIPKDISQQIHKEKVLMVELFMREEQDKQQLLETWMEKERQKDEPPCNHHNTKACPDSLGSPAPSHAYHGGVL
Nature of the experiment: YFP quenching assay of ANO1 activity in PC-3 cells. The class given is cell-based. The conditions noted are these: PC-3 cells expressing high levels of ANO1; indicated concentrations. On the procedure:
Initial iodide influx rate was determined from the initial slope of fluorescence decrease, by nonlinear regression, following infusion of iodide with ATP.

Consider `O=c1c(O)c(-c2ccc(O)cc2)oc2cc(O)cc(O)c12` [Kaempferol], for which, in experiment [1], the IC50 (commonly the midpoint of a concentration-inhibition curve) was 14.55 ± 0.03 µM. Further, the “Inhibition of ANO1 activity” value in experiment [2] is “significantly inhibited”.
In the case of `O=c1cc(-c2ccc(O)c(O)c2)oc2cc(O)cc(O)c12` [luteolin], the “Block of ATP-induced ANO1 activation (YFP)” value in experiment [1] (100 μM) was “almost completely blocked”. The IC50 in experiment [1] was 9.37 µM and ~9.4 µM. For the same compound, in experiment [2], the “Inhibition of ANO1 activity” value is “potently inhibited”.
